These results are taken from patent publication US20070280946A1, “Antibody to 5' -Deoxy-5' - Methylthioadenosine And Uses Thereof” (priority 2004, published 2007).

Assay [1] relates to interaction of proteoglycan units with collagen. Conditions: column of Sepharose 4B-collagen loaded with proteoglycan subunits; cited from earlier work.
For assay [2], the target named is T1, alkaline phosphatase produced from cartilage (Homo sapiens, UniProt P05186).
T1 sequence (P05186 18-501): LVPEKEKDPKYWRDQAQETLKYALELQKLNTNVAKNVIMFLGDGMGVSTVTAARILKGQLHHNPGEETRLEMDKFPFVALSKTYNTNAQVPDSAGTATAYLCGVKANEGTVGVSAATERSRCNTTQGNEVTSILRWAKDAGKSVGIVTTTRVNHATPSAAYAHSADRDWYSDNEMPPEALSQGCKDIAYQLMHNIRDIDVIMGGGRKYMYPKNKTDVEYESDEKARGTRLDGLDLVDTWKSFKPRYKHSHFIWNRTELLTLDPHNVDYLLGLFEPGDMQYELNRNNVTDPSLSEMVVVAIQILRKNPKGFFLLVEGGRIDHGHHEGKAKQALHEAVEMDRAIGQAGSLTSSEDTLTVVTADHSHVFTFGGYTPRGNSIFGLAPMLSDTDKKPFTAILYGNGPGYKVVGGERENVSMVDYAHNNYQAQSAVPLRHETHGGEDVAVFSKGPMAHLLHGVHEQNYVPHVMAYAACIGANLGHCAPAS
The conditions noted are these: cited from earlier work.

The target in assay [3] is T2, spermidine synthase (Homo sapiens, UniProt P19623).
T2 construct: Human SPDS gene was amplified by PCR, inserted into an entry vector pENTR11; made in house; host or cells: HEK293 cells (transient transfection, Lipofectamine 2000)
T2 sequence (P19623 1-302): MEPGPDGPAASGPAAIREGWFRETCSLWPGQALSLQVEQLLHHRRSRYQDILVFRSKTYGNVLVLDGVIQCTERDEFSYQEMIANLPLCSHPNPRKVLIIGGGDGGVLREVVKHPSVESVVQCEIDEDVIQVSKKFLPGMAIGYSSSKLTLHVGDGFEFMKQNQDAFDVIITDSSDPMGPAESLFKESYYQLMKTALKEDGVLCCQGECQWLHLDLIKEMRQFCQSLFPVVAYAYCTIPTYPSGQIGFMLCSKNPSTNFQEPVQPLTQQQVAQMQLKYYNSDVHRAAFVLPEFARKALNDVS
The experiment in a line: Activity measurement of spermidine synthase by ELISA. The conditions noted are these: measured by ELISA; read-out: IC50 value, inhibition of MTA production by SPDS. The assay is classed as biochemical. On the procedure: The amount of MTA in each well was calculated from the competitive curve described above, and the produced amount of MTA per an enzyme amount and a reaction time was determined to be defined as an enzyme activity. It was confirmed that a production amount of MTA was increased depending on a concentration of spermidine synthase and a reaction time. […] Pharma., 1991.). […] By detecting a production amount of MTA according to the present method, an inhibition effect of the test substance was measured.
In general terms: An ELISA detects its analyte on a solid surface through an enzyme-linked reagent.

Assay [4] deals with T2, spermidine synthase. Nature of the assay: Activity measurement of spermidine synthase by HTRF. Type of assay: biochemical. The conditions noted are these: measured by HTRF; read-out: IC50 value, inhibition of MTA production by SPDS. As for the experimental part:
10 μL of spermidine synthase diluted with buffer C was added into 384-well assay plate (black, Corning). Then, to the plate was added 10 μl of the above substrate mixture, and reaction was conducted at room temperature. […] Then, each well was added with 20 μl of europium cryptate-labeled anti-MTA-7H8 antibody made to 288 ng/ml with buffer D, and the mixture was reacted for 16 hours at room temperature. Fluorescence of each well was measured by Rubyster (BMG Labtechnologis). An amount of MTA in each well was calculated from a standard curve, and converted to an amount of MTA per an enzyme amount and a reaction time, which was an enzyme activity. In FIG. 4, open circles represent reactivity to dcSAM and filled circles represent reactivity to MTA. […] It was confirmed that a production amount of MTA was increased depending on a concentration of spermidine synthase and a reaction time. […] By detecting a production amount of MTA according to the present method, an inhibition effect of the test substance was measured.
In general terms: Time-resolved FRET reads energy transfer from a long-lived donor to a nearby acceptor.

The subject of assay [5] is spermidine synthase. Conditions: Shirahata et al., Biochem. Pharma., 1991; read-out: IC50 value in a publication; cited from earlier work.

In general, IC50 refers to the concentration that inhibits the measured activity by half.

For `NCCCNCCCCNCCCN` [spermine], in assay [1], the “capacity of displacing proteoglycan subunits from the column” value (shortened to “capacity”) is reported as “without effect”. The “effect on activity of alkaline phosphatase produced from cartilage” value in assay [2] was “increased the activity”.
With `CC1CCC(N)CC1` (stereo not drawn) [4-methylcyclohexylamine], the half-inhibitory concentration (IC50) is 1000 nM at spermidine synthase [3], 1100 nM on spermidine synthase [4] and 1700 nM in the assay with spermidine synthase [5].
With `NCCCCN` [putrescine], the “capacity” value in assay [1] is “without effect”.
Take `NCCCCNCCCN` [spermidine]: in assay [1], the “capacity” value is given as “showed the capacity of displacing proteoglycan subunits” and the “proteoglycan subunits removed from the column” value is recorded as “about 90%”. For the same compound, the “effect on activity of alkaline phosphatase produced from cartilage” value in assay [2] was “increased the activity”.
